Reference: US20240060113A1, “PRESERVATION OF FETAL NUCLEIC ACIDS IN MATERNAL PLASMA” (STRECK LLC, priority 2009, published 2024)

Tested on: non-human (lambda) DNA
Experiment: Lambda DNA spiked into plasma, stored at room temperature, Quantitative PCR (Example 2, FIG. 3)
Details: plasma stored at room temperature 0 to 14 days
Method: Blood samples from the same donor are drawn into two different types of blood collection tubes. One tube contains 500 g/L IDU, 81 g/L Tripotassium EDTA and 47 g/L glycine. The other tube contains only Heparin. All samples are centrifuged at 2100 g for 30 minutes at room temperature to separate the plasma. The plasma is then transferred to new tubes and non-human (lambda) DNA is then spiked into the plasma tubes. The spiked samples are then stored at room temperature for 0, 1, 2, 3, 4, 7, 11, and 14 days. Free circulating DNA is purified using the QIAamp® DNA Blood Mini Kit available from QIAGEN Inc. (Valencia, CA). DNA is extracted from each plasma sample. The samples are then amplified by Quantitative PCR (using iQ SYBR Green Supermix reagents available from BIO-RAD Laboratories (Hercules, California)) to identify the amount of lambda DNA present. […] The expected results of this example are shown in graphic format at FIG. 3. This example confirms that the compositions of the present invention are able to maintain the integrity and amount of DNA present in a blood sample.

**Q.** For Heparin, which “relative percentage of lambda DNA present” value is on record?
**A.** decreases at every consecutive measurement
